Where no end group is shown, it is not given here.

In one experiment the test system is GST-REF2-I. Put plainly: GST-REF2-I pull down of 35S-radiolabelled ICP27 fragments. It counts as binding, murine. The settings on record: 35S-radiolabelled protein from rabbit reticulocytes, glutathione beads, RB100 buffer pH 7.5, 10 µg/ml RNAse A; SDS-PAGE, PhosphoImage. The source says:
To confirm the position of REF-binding domains within ICP27 and ORF57 and to minimise the size of constructs for more detailed NMR mapping, a series of fragments derived from HSV-1 ICP27 were screened for binding to GST-REF2-I using pull down assays (Fig. 1). […] The REF-binding fragment of ORF57 aa 8–120 identified previously similarly interacted with the same fragments of REF (Fig. 1D).
Figure 1 Identification of regions for the interactions between REF and ICP27/ORF57. (A) Subdivision of ICP27, ORF57 and REF2-I in fragments. […] (C) Fusion of the ICP27^103–138 peptide to GST allows a specific pull down of REF, REF^1–155 (NM) and REF^54–155 (Δ53) and a very weak pull down of the REF^1–70 (N); no interaction is detected with the control Ras protein. (D) Same pull down assay as panel C but using GST fusion of ORF57 aa 8–120 in place of ICP27.
GST or GST protein fusions were first immobilised on 30 µl slurry glutathione-coated beads (GE Healthcare) before 8 µl ^35S-radiolabelled proteins synthesised in rabbit reticulocytes (Promega) were added to the binding reactions in RB100 buffer (25 mM HEPES pH 7.5/100 mM KOAc/10 mM MgCl2/1 mM DTT/0.05% Triton X-100/10% glycerol) in presence of 10 µg/ml RNAse A. Washed and eluted protein complexes were resolved on 15% SDS-PAGE stained with Coomassie blue and analysed by PhosphoImage. […]
“ICP27^139–512: fragment aa 139–512 of HSV-1 ICP27”: the “Binding to GST-REF2-I in pull down” value was “no binding”.

As for “ICP27^1–103: fragment aa 1–103 of HSV-1 ICP27”, the “Binding to GST-REF2-I in pull down” value is “no binding”.

Another experiment has as its system REF^156–218 (REF2-I C-terminal domain). Put plainly: NMR 1H-15N correlation spectra of 15N-labelled REF^156–218 with added viral protein constructs. Conditions: 2-fold excess of viral construct; 15N-HSQC. It counts as binding, murine.
In the case of “…SCKTSWADRVREAAAQRR [HVS ORF57^8–120, recombinant fragment aa 8–120 of Herpesvirus saimiri ORF57, with T7 and poly-His tags]”, the “Changes in 1H-15N correlation spectra of 15N-REF^156–218 upon addition” value is on record as “No significant changes”.

The next experiment concerns the target T1, REF^54–155 (REF2-I RRM domain) (Mus musculus, UniProt Q9JJW6).
T1 construct: made in house
Put plainly: NMR chemical shift titration of 15N-REF^54–155 with viral peptides (dissociation constants). It counts as binding, murine.
Conditions: not given
How it is done:
A separate titration of each peptide was carried out under the same sample conditions. Increasing amounts of peptide were added to a ^15N-REF^54–155 sample, achieving binding saturation whenever possible. Throughout these titrations amide chemical shift changes were monitored to assess the relative binding affinity of these peptides for REF and simultaneously map their binding sites. Estimates of dissociation constants were obtained for each peptide, and for the longer viral adaptor fragments (Table 2). […] A reduction in affinity was more pronounced in the L108A mutant, with the R107A mutation virtually abolishing the binding. […] This agrees with the NMR mapping data that a longer sequence from ORF57 (residues 103–120) is involved in REF binding. […] These latter two viral adaptors lack the signature Trp residue, and additionally in KSHV-ORF57 the Arg within the triad is replaced by Lys. As a further control, we also checked if binding of the viral peptides is specific to the RRM domain of REF, or if it can occur with RRMs of other proteins as well. The proteins SF2 [37] and 9G8 [38] bind TAP/p15 and have roles in splicing and mRNA export somewhat similar to that of REF/Aly. They also contain an RRM domain and are therefore structurally homologous to REF/Aly. To test if the same ICP27 motif could interact with these RRM domains, we added a 5-fold excess of WT ICP27^103–112 peptide to ^15N-labelled SF2 [37] and 9G8 [38]. […] These experiments confirmed that the recognition of the REF RRM domain by viral adaptor proteins is highly specific, and the isolated peptides ICP27^103–112, ICP27^103–110 and ORF57^103–120 are able to bind REF as efficiently as longer fragments of these viral proteins.
All experiments were carried out at 30°C on Bruker DRX600, DRX700 and Varian Inova 800 MHz spectrometers equipped with cryoprobes. The weighted chemical shift changes of amide signals δCS caused by complex formation were measured as [drawing 1] , where Δδ^H and Δδ^N were changes in proton and nitrogen chemical shifts, respectively. Standard triple-resonance experiments were used to assign spectra of ICP27^103–138, ORF57^8–120 and REF^54–155 in their free and bound states. Additionally, carbon-detection experiments (CON, CaCO, CbCaCO, CbCaCO(N), CbCaNCO) were used as an aid to the ORF57 assignment. Spectra were processed using NMRpipe and Topspin 2.1 (Bruker) and analysed using Sparky (University of California). Distance restraints obtained from 3D ^15N- and ^13C edited NOESY-HSQC experiments (τm 120 ms) and dihedral restraints from TALOS [51] were used in structure calculations by CYANA [52]. Additionally, intermolecular contacts were unambiguously identified using ^13C edited, ^12C-filtered NOESY-HSQC (τm 150 ms) spectra acquired on Varian Inova 800 MHz spectrometer. In this experiment only NOE crosspeaks between ^1H-^13C moieties of ^13C,^15N-labelled REF and ^1H(^12C) of unlabelled ICP27 peptide were observed, [54]. A final ensemble contained 20 structures with lowest target function values. Images were generated using Pymol (DeLano Scientific). For the REF - ICP27 complex, structure coordinates and experimental constraints have been deposited into the Protein Data Bank and chemical shifts in the BioMagResBank (access numbers 2kt5 and bmr16683 respectively). Other chemical shift assignments deposited in the BioMagResBank are: free ICP27^103–138 bmr16696, free REF^54–155 bmr16697, and ORF57^8–120 bmr16698 (both free and bound to REF^54–155).
Unlabelled synthetic peptides were obtained from Peptide Protein Research Ltd (UK). The synthetic peptide sequences used were from Varicella-zoster virus ORF4^108–119 (AAY57694), Kaposi's sarcoma-associated herpesvirus ORF57^100–110 (YP_001129410), Herpesvirus Saimiri ORF57^103–120 & 105–115 (CAC84353), Herpes simplex virus 1 ICP27^103–110 & 103–112 (AAF43147). […]
For the substance “SCKTSAADRVREAAAQRR [HVS ORF57^103–120 W108A]”, the Kd is above 7500 µM.

On to SVWSRAGARR [ICP27^103–112 L108A], for which the Kd is above 5000 µM.

Turning to KTSWADRVREA [HVS ORF57^105–115], the Kd was above 1000 µM.

On to “SCKTSWADRAREAAAQRR [HVS ORF57^103–120 V112A]”, for which the Kd amounted to 156 ± 32 µM.

As for TGYARIERGHRR [VZV ORF4^108–119], the Kd is above 1000 µM.

SVWSALGARR [ICP27^103–112 R107A]: the Kd was above 10000 µM.

As for SVASRLGARR [ICP27^103–112 W105A], the Kd was 550 ± 210 µM.

“SCKTSWADAVREAAAQRR [HVS ORF57^103–120 R111A]”: the Kd was 254 ± 50 µM.

On to “NRYGKKIKFGT [KSHV ORF57^100–110, reference compound]”, for which the Kd is above 100000 µM.

Staying with this experiment, now noted: chemical shift changes in 1H-15N correlation spectra of 100 µM 15N-REF^54–155 versus increasing peptide concentration, fitted to standard equation; 30°C; NMR buffer 20 mM phosphate, 50 mM NaCl, 50 mM L-Arg/L-Glu/β-mercaptoethanol, 10 mM EDTA, pH 6.2; read-out: K D.
For “…SCKTSWADRVREAAAQRR [HVS ORF57^8–120, recombinant fragment aa 8–120 of Herpesvirus saimiri ORF57, with T7 and poly-His tags]”, the Kd was 78 ± 12 µM.

The values above are taken from PMC3017119, “Structural Basis for the Recognition of Cellular mRNA Export Factor REF by Herpes Viral Proteins HSV-1 ICP27 and HVS ORF57” (PLoS Pathogens, 2011).
